Results from US20180024136A1, “Development of ABCG2-Sensitive Fluorescent Probe For Isolation of ABCG2low Neural Stem/Progenitor Cells” (National University of Singapore, priority 2015, published 2018).

Assay: Spectroscopic properties of CF library (absorbance, emission, quantum yield, extinction coefficient)
Format: physicochemical
Conditions: 100 μM in ethanol; for QY (Φ): reference fluorescein
Experimental: All the chemicals and solvents were purchased from Sigma Aldrich, Alfa Aesar, Fluka, MERCK, Tocris or Acros, and used without further purification. Normal phase purifications were carried out using Merck Silica Gel 60 (particle size: 0.040-0.063 mm, 230-400 mesh). Analytical characterization was performed on a HPLC-MS (Agilent-1200 series) with a DAD detector and a single quadrupole mass spectrometer (6130 series) with an ESI probe. ^1H-NMR and ^13C-NMR spectra were recorded on Bruker Avance 300 MHz NMR spectrometers, and chemical shifts are expressed in parts per million (ppm) and coupling constants are reported as a J value in Hertz (Hz). High resolution mass spectrometry (HRMS) data was recorded on a Micro mass VG 7035 (Mass Spectrometry Laboratory at National University of Singapore (NUS)). Spectroscopic and quantum yield data were measured on spectroscopic measurements, performed on a fluorometer and UV/VIS instrument, Synergy 4 of Bioteck Company. The slit width was 1 nm for both excitation and emission, and the data analysis was performed using GraphPrism 5.0.

Row | Structure (SMILES) | Abs (nm) | Em (nm) | QY (Φ)
1 | CCCCCCCCCCCCCCCCCCNC(=O)c1ccc(-c2c3cc(Cl)c(=O)cc-3oc3cc(O)c(Cl)cc23)cc1 [CF-D6] | 520 | 555 | 0.32
2 | CC(C)OCCCNC(=O)c1ccc(-c2c3cc(Cl)c(=O)cc-3oc3cc(O)c(Cl)cc23)cc1 [CF-F9] | 520 | 557 | 0.34
3 | O=C(NC1CCCC1)c1ccc(-c2c3cc(Cl)c(=O)cc-3oc3cc(O)c(Cl)cc23)cc1 [CF-E5] | 520 | 556 | 0.58
4 | CCCCCCCCCCCCCNC(=O)c1ccc(-c2c3cc(Cl)c(=O)cc-3oc3cc(O)c(Cl)cc23)cc1 [CF-A4] | 520 | 558 | 0.26
5 | C#CCNC(=O)c1ccc(-c2c3cc(Cl)c(=O)cc-3oc3cc(O)c(Cl)cc23)cc1 [CF-F11] | 520 | 559 | 0.21
6 | CCCCC(CC)COCCCNC(=O)c1ccc(-c2c3cc(Cl)c(=O)cc-3oc3cc(O)c(Cl)cc23)cc1 (stereo not drawn) [CF-B5] | 520 | 559 | 0.54
7 | CCOCCCNC(=O)c1ccc(-c2c3cc(Cl)c(=O)cc-3oc3cc(O)c(Cl)cc23)cc1 [CF-E4] | 520 | 558 | 0.47
8 | CC(C)CCNC(=O)c1ccc(-c2c3cc(Cl)c(=O)cc-3oc3cc(O)c(Cl)cc23)cc1 [CF-C8] | 520 | 558 | 0.68
9 | CCCCCCCNC(=O)c1ccc(-c2c3cc(Cl)c(=O)cc-3oc3cc(O)c(Cl)cc23)cc1 [CF-B11] | 520 | 558 | 0.66
10 | COCCNC(=O)c1ccc(-c2c3cc(Cl)c(=O)cc-3oc3cc(O)c(Cl)cc23)cc1 [CF-B3] | 520 | 557 | 0.32
11 | O=C(NC1CC1)c1ccc(-c2c3cc(Cl)c(=O)cc-3oc3cc(O)c(Cl)cc23)cc1 [CF-B2] | 520 | 558 | 0.53
12 | CCC(C)(C)NC(=O)c1ccc(-c2c3cc(Cl)c(=O)cc-3oc3cc(O)c(Cl)cc23)cc1 [CF-G11] | 520 | 557 | 0.35
13 | O=C(c1ccc(-c2c3cc(Cl)c(=O)cc-3oc3cc(O)c(Cl)cc23)cc1)N1CCc2ccccc2C1 [CF-A5] | 520 | 556 | 0.75
14 | CCCCCCCCCCCCCCCCCCN(C)C(=O)c1ccc(-c2c3cc(Cl)c(=O)cc-3oc3cc(O)c(Cl)cc23)cc1 [CF-H11] | 520 | 552 | 0.32
15 | COc1cccc(CCNC(=O)c2ccc(-c3c4cc(Cl)c(=O)cc-4oc4cc(O)c(Cl)cc34)cc2)c1OC [CF-E7] | 520 | 557 | 0.46
16 | CCCN(CCC)C(=O)c1ccc(-c2c3cc(Cl)c(=O)cc-3oc3cc(O)c(Cl)cc23)cc1 [CF-A11] | 520 | 558 | 0.36

Row | Structure (SMILES) | Abs (nm) | Em (nm) | QY (Φ)
17 | O=C(NCCCN1CCCC1=O)c1ccc(-c2c3cc(Cl)c(=O)cc-3oc3cc(O)c(Cl)cc23)cc1 [CF-D2] | 520 | 557 | 0.61
18 | O=C(NC1CCCCC1)c1ccc(-c2c3cc(Cl)c(=O)cc-3oc3cc(O)c(Cl)cc23)cc1 [CF-A9] | 520 | 557 | 0.63
19 | CC1CCCC(NC(=O)c2ccc(-c3c4cc(Cl)c(=O)cc-4oc4cc(O)c(Cl)cc34)cc2)C1C (stereo not drawn) [CF-H2] | 520 | 556 | 0.65
20 | O=C(NC1CCCCCC1)c1ccc(-c2c3cc(Cl)c(=O)cc-3oc3cc(O)c(Cl)cc23)cc1 [CF-C9] | 520 | 558 | 0.50
21 | Cc1ccc(CCNC(=O)c2ccc(-c3c4cc(Cl)c(=O)cc-4oc4cc(O)c(Cl)cc34)cc2)cc1 [CF-C10] | 520 | 558 | 0.54
22 | COc1ccc(CCNC(=O)c2ccc(-c3c4cc(Cl)c(=O)cc-4oc4cc(O)c(Cl)cc34)cc2)cc1OC [CF-B10] | 520 | 559 | 0.56
23 | CCCN(CC1CC1)C(=O)c1ccc(-c2c3cc(Cl)c(=O)cc-3oc3cc(O)c(Cl)cc23)cc1 [CF-C6] | 520 | 554 | 0.58
24 | O=C(NCc1ccc(OC(F)(F)F)cc1)c1ccc(-c2c3cc(Cl)c(=O)cc-3oc3cc(O)c(Cl)cc23)cc1 [CF-A8] | 520 | 558 | 0.37
25 | COCCN(CCOC)C(=O)c1ccc(-c2c3cc(Cl)c(=O)cc-3oc3cc(O)c(Cl)cc23)cc1 [CF-H3] | 520 | 553 | 0.82
26 | O=C(NCC1CCCCC1)c1ccc(-c2c3cc(Cl)c(=O)cc-3oc3cc(O)c(Cl)cc23)cc1 [CF-G9] | 520 | 557 | 0.27
27 | CC1CN(C(=O)c2ccc(-c3c4cc(Cl)c(=O)cc-4oc4cc(O)c(Cl)cc34)cc2)CC(C)O1 (stereo not drawn) [CF-D3] | 520 | 555 | 0.47
28 | CCCCN(CCCC)C(=O)c1ccc(-c2c3cc(Cl)c(=O)cc-3oc3cc(O)c(Cl)cc23)cc1 [CF-E3] | 520 | 554 | 0.66
29 | O=C(NCc1c(F)cccc1F)c1ccc(-c2c3cc(Cl)c(=O)cc-3oc3cc(O)c(Cl)cc23)cc1 [CF-A7] | 520 | 560 | 0.58
30 | CCCCCNC(=O)c1ccc(-c2c3cc(Cl)c(=O)cc-3oc3cc(O)c(Cl)cc23)cc1 [CF-G10] | 520 | 558 | 0.23
31 | CN(C(=O)c1ccc(-c2c3cc(Cl)c(=O)cc-3oc3cc(O)c(Cl)cc23)cc1)C1CCCCC1 [CF-A10] | 520 | 558 | 0.63
32 | CCCCNC(=O)c1ccc(-c2c3cc(Cl)c(=O)cc-3oc3cc(O)c(Cl)cc23)cc1 [CF-G7] | 520 | 559 | 0.41

The remaining lines, values ahead:

Row | Abs (nm) | Em (nm) | QY (Φ) | Structure (SMILES)
33 | 520 | 558 | 0.59 | O=C(NCCC(c1ccccc1)c1ccccc1)c1ccc(-c2c3cc(Cl)c(=O)cc-3oc3cc(O)c(Cl)cc23)cc1 [CF-D10]
34 | 520 | 558 | 0.47 | O=C(NC1Cc2ccccc2C1)c1ccc(-c2c3cc(Cl)c(=O)cc-3oc3cc(O)c(Cl)cc23)cc1 [CF-D8]
35 | 520 | 557 | 0.38 | CC(C)CC(C)NC(=O)c1ccc(-c2c3cc(Cl)c(=O)cc-3oc3cc(O)c(Cl)cc23)cc1 (stereo not drawn) [CF-H10]
36 | 520 | 555 | 0.66 | CCN(Cc1ccccc1)C(=O)c1ccc(-c2c3cc(Cl)c(=O)cc-3oc3cc(O)c(Cl)cc23)cc1 [CF-D5]
37 | 520 | 559 | 0.57 | CC(C)NC(=O)c1ccc(-c2c3cc(Cl)c(=O)cc-3oc3cc(O)c(Cl)cc23)cc1 [CF-B8]
38 | 520 | 556 | 0.51 | O=C(NCCc1ccccc1Cl)c1ccc(-c2c3cc(Cl)c(=O)cc-3oc3cc(O)c(Cl)cc23)cc1 [CF-H8]
39 | 520 | 557 | 0.29 | CC(C)C(C)NC(=O)c1ccc(-c2c3cc(Cl)c(=O)cc-3oc3cc(O)c(Cl)cc23)cc1 (stereo not drawn) [CF-E6]
40 | 520 | 558 | 0.44 | O=C(NCCCCc1ccccc1)c1ccc(-c2c3cc(Cl)c(=O)cc-3oc3cc(O)c(Cl)cc23)cc1 [CF-D11]
41 | 520 | 559 | 0.34 | COc1ccccc1CCNC(=O)c1ccc(-c2c3cc(Cl)c(=O)cc-3oc3cc(O)c(Cl)cc23)cc1 [CF-F8]
42 | 520 | 557 | 0.38 | CCCC(C)NC(=O)c1ccc(-c2c3cc(Cl)c(=O)cc-3oc3cc(O)c(Cl)cc23)cc1 (stereo not drawn) [CF-G5]
43 | 520 | 556 | 0.40 | O=C(CCCCc1ccccc1)c1ccc(-c2c3cc(Cl)c(=O)cc-3oc3cc(O)c(Cl)cc23)cc1 [CF-G4]
44 | 520 | 557 | 0.59 | O=C(NCCc1ccccc1F)c1ccc(-c2c3cc(Cl)c(=O)cc-3oc3cc(O)c(Cl)cc23)cc1 [CF-H7]
45 | 520 | 559 | 0.55 | COc1cccc(CNC(=O)c2ccc(-c3c4cc(Cl)c(=O)cc-4oc4cc(O)c(Cl)cc34)cc2)c1 [CF-C4]
46 | 520 | 559 | 0.78 | CC(C)N(Cc1ccccc1)C(=O)c1ccc(-c2c3cc(Cl)c(=O)cc-3oc3cc(O)c(Cl)cc23)cc1 [CF-C2]
47 | 520 | 557 | 0.43 | CC(Cc1ccccc1)NC(=O)c1ccc(-c2c3cc(Cl)c(=O)cc-3oc3cc(O)c(Cl)cc23)cc1 (stereo not drawn) [CF-A6]
48 | 520 | 559 | 0.40 | CCC(NC(=O)c1ccc(-c2c3cc(Cl)c(=O)cc-3oc3cc(O)c(Cl)cc23)cc1)c1ccccc1 (stereo not drawn) [CF-A3]
